Like-named read-outs stand apart in the source and are kept apart here.
Columns and labels:
[1] = test system: cardiovascular activities / arrhythmia; settings: cited from earlier work; for cardiovascular activities: Fukuda H. et al
anaesthetized rats [2] = settings: for Arrhythmic scores / Antiarrhythmic effect: X ± SD; for Incidence of VF: n=10; for Death / animals with VF / animals without VF: of n=10
anaesthetized rats [3] = assay: animal or person; settings: Rattus norvegicus
dogs = assay: Ouabain-induced arrhythmia in dogs; format: in vivo, dog; settings: for Incidence of arrhythmia: I13 iv 3 mg/kg, lidocaine iv 12 mg/kg
Protocol: (iv, 12 mg/kg) on ouabain induced arrhythmia in dogs
(Ouabain administration for 30 min)

rabbits = assay: Electrically-induced ventricular fibrillation threshold (VFT) in rabbits; format: in vivo, rabbit
[4] = test system: Langendorff's perfused rat hearts; assay: Lasting antiarrhythmic action after po administration, hearts removed and mounted on Langendorff's apparatus; format: in vivo; settings: 10 mg/kg po at 1 hr before experiment (FIG. 4)
Protocol: 1, 3 and 6 hours after the administration of 100 mg/kg of I13 by p.o. to rats, the hearts were removed and mounted onto Langendorff's apparatus. […] (see FIG. 4)
FIG. 4. Influence of po I13 and mexiletine on the time course of reperfusion-induced arrhythmias in Langendorff's perfused rat hearts

## COc1ccc2cc3[n+](cc2c1OC)CCc1cc2c(cc1-3)OCO2 [berberine]
[1]
  cardiovascular activities: highly potent cardiovascular activities

## COc1ccc2cc3[n+](cc2c1O)CCc1cc2c(cc1-3)OCO2 [berberubine]
[1]
  cardiovascular activities: highly potent cardiovascular activities

## CCCNCC(O)COc1ccccc1C(=O)CCc1ccccc1 (stereo not shown) [propafenon, reference compound]
Anaesthetized rats [2]; po 10 mg/kg
  Arrhythmic scores: 2.6 ± 1.6
  Incidence of VF: 20%
  Death: 2
  animals with VF: 1
  animals without VF: 7
Anaesthetized rats [2]; po 30 mg/kg
  Arrhythmic scores: 1.8 ± 1.6
  Incidence of VF: 0%
  Death: 0
  animals with VF: 0
  animals without VF: 10
Anaesthetized rats [3]; po
  ED50: 19.3 mg/kg

## CCN(CC)CC(=O)Nc1c(C)cccc1C [Lidocaine, reference compound]
dogs; 0 min (before administration)
  Incidence of arrhythmia: 97 ± 8%
dogs; 5 min
  Incidence of arrhythmia: 83 ± 41%
dogs; 10 min
  Incidence of arrhythmia: 74 ± 42%
dogs; 15 min
  Incidence of arrhythmia: 55 ± 46%
dogs; 20 min
  Incidence of arrhythmia: 42 ± 45%
dogs; 25 min
  Incidence of arrhythmia: 16 ± 24%
dogs; 30 min
  Incidence of arrhythmia: 10 ± 17%
dogs; 35 min
  Incidence of arrhythmia: 8 ± 10%
dogs; 40 min
  Incidence of arrhythmia: 28 ± 25%
dogs; 45 min
  Incidence of arrhythmia: 10 ± 14%
dogs; 50 min
  Incidence of arrhythmia: 8 ± 15%
dogs; 60 min
  Incidence of arrhythmia: 10 ± 21%
dogs; within 4 hour period
  reoccurrence of arrhythmia: reoccurrences of VPBs, VT and VF have been detected
rabbits; baseline, iv 15 mg/kg group
  VFT Before: 5.6 ± 0.9 volt
rabbits; iv 15 mg/kg
  VFT After: 8.8 ± 1.6 volt
  ΔVFT: 3.3 ± 0.9 volt
Anaesthetized rats [2]; iv 1.0 mg/kg
  Arrhythmic scores: 5.3 ± 0.8
  Incidence of VF: 50%
  Death: 0
  animals with VF: 3
  animals without VF: 7
Anaesthetized rats [2]; iv 1.0 mg/kg, coronary occlusion 5 min
  Antiarrhythmic effect: 1.0 ± 1.4
Anaesthetized rats [2]; iv 1.0 mg/kg, coronary occlusion 10 min
  Antiarrhythmic effect: 0.38 ± 0.23
Anaesthetized rats [2]; iv 1.0 mg/kg, reperfusion 0.17 min
  Antiarrhythmic effect: 3.6 ± 1.3
Anaesthetized rats [2]; iv 1.0 mg/kg, reperfusion 0.33 min
  Antiarrhythmic effect: 4.4 ± 1.5
Anaesthetized rats [2]; iv 1.0 mg/kg, reperfusion 0.5 min
  Antiarrhythmic effect: 5.3 ± 0.9
Anaesthetized rats [2]; iv 1.0 mg/kg, reperfusion 1 min
  Antiarrhythmic effect: 2.1 ± 1.7
Anaesthetized rats [2]; iv 1.0 mg/kg, reperfusion 2 min
  Antiarrhythmic effect: 1.3 ± 1.0
Anaesthetized rats [2]; iv 1.0 mg/kg, reperfusion 3 min
  Antiarrhythmic effect: 0.6 ± 1.0
Anaesthetized rats [2]; iv 1.0 mg/kg, reperfusion 5 min
  Antiarrhythmic effect: 0.2 ± 0.4
Anaesthetized rats [2]; iv 1.0 mg/kg, reperfusion 6 min
  Antiarrhythmic effect: 0.2 ± 0.4
Anaesthetized rats [2]; iv 1.0 mg/kg, reperfusion 7 min
  Antiarrhythmic effect: 0.2 ± 0.4
Anaesthetized rats [2]; iv 1.0 mg/kg, reperfusion 10 min
  Antiarrhythmic effect: 0.2 ± 0.4
Anaesthetized rats [2]; iv 1.0 mg/kg, reperfusion 15 min
  Antiarrhythmic effect: 0.06 ± 0.2
Anaesthetized rats [2]; iv 1.0 mg/kg, reperfusion 25 min
  Antiarrhythmic effect: 0
Anaesthetized rats [2]; iv 3.0 mg/kg
  Arrhythmic scores: 1.7 ± 1.8
  Incidence of VF: 0%
  Death: 0
  animals with VF: 0
  animals without VF: 10
Anaesthetized rats [2]; iv 3.0 mg/kg, coronary occlusion 5 min
  Antiarrhythmic effect: 0.2 ± 0.3
Anaesthetized rats [2]; iv 3.0 mg/kg, coronary occlusion 10 min
  Antiarrhythmic effect: 0.5 ± 0.6
Anaesthetized rats [2]; iv 3.0 mg/kg, reperfusion 0.17 min
  Antiarrhythmic effect: 1.2 ± 1.4
Anaesthetized rats [2]; iv 3.0 mg/kg, reperfusion 0.33 min
  Antiarrhythmic effect: 1.7 ± 1.8
Anaesthetized rats [2]; iv 3.0 mg/kg, reperfusion 0.5 min
  Antiarrhythmic effect: 1.1 ± 1.4
Anaesthetized rats [2]; iv 3.0 mg/kg, reperfusion 1 min
  Antiarrhythmic effect: 0.8 ± 1.3
Anaesthetized rats [2]; iv 3.0 mg/kg, reperfusion 2 min
  Antiarrhythmic effect: 0.4 ± 1.0
Anaesthetized rats [2]; iv 3.0 mg/kg, reperfusion 3 min
  Antiarrhythmic effect: 0.3 ± 0.5
Anaesthetized rats [2]; iv 3.0 mg/kg, reperfusion 5 min
  Antiarrhythmic effect: 0.4 ± 0.7
Anaesthetized rats [2]; iv 3.0 mg/kg, reperfusion 6 min
  Antiarrhythmic effect: 0.3 ± 0.7
Anaesthetized rats [2]; iv 3.0 mg/kg, reperfusion 7 min
  Antiarrhythmic effect: 0.2 ± 0.4
Anaesthetized rats [2]; iv 3.0 mg/kg, reperfusion 10 min
  Antiarrhythmic effect: 0.2 ± 0.3
Anaesthetized rats [2]; iv 3.0 mg/kg, reperfusion 15 min
  Antiarrhythmic effect: 0.1 ± 0.3
Anaesthetized rats [2]; iv 3.0 mg/kg, reperfusion 25 min
  Antiarrhythmic effect: 0.1 ± 0.3
Anaesthetized rats [2]; po 10 mg/kg, coronary occlusion 5 min
  Antiarrhythmic effect: 0.5 ± 0.5
Anaesthetized rats [2]; po 10 mg/kg, coronary occlusion 10 min
  Antiarrhythmic effect: 0.40 ± 0.22
Anaesthetized rats [2]; po 10 mg/kg, reperfusion 0.17 min
  Antiarrhythmic effect: 2.6 ± 1.6
Anaesthetized rats [2]; po 10 mg/kg, reperfusion 0.33 min
  Antiarrhythmic effect: 2.6 ± 1.8
Anaesthetized rats [2]; po 10 mg/kg, reperfusion 0.5 min
  Antiarrhythmic effect: 2.5 ± 2.3
Anaesthetized rats [2]; po 10 mg/kg, reperfusion 1 min
  Antiarrhythmic effect: 2.2 ± 1.9
Anaesthetized rats [2]; po 10 mg/kg, reperfusion 1.5 min
  Antiarrhythmic effect: 2.4 ± 2.2
Anaesthetized rats [2]; po 10 mg/kg, reperfusion 3 min
  Antiarrhythmic effect: 1.5 ± 2.5
Anaesthetized rats [2]; po 10 mg/kg, reperfusion 4 min
  Antiarrhythmic effect: 1.1 ± 1.9
Anaesthetized rats [2]; po 10 mg/kg, reperfusion 5 min
  Antiarrhythmic effect: 1.0 ± 1.9
Anaesthetized rats [2]; po 10 mg/kg, reperfusion 6 min
  Antiarrhythmic effect: 0.8 ± 1.6
Anaesthetized rats [2]; po 10 mg/kg, reperfusion 7 min
  Antiarrhythmic effect: 1.3 ± 2.5
Anaesthetized rats [2]; po 10 mg/kg, reperfusion 15 min
  Antiarrhythmic effect: 1.4 ± 2.9
Anaesthetized rats [2]; po 10 mg/kg, reperfusion 25 min
  Antiarrhythmic effect: 1.4 ± 2.9
Anaesthetized rats [2]; po 30 mg/kg, coronary occlusion 5 min
  Antiarrhythmic effect: 0.9 ± 0.7
Anaesthetized rats [2]; po 30 mg/kg, coronary occlusion 10 min
  Antiarrhythmic effect: 1.0 ± 0.9
Anaesthetized rats [2]; po 30 mg/kg, reperfusion 0.17 min
  Antiarrhythmic effect: 1.7 ± 1.5
Anaesthetized rats [2]; po 30 mg/kg, reperfusion 0.33 min
  Antiarrhythmic effect: 1.8 ± 1.6
Anaesthetized rats [2]; po 30 mg/kg, reperfusion 0.5 min
  Antiarrhythmic effect: 1.0 ± 1.0
Anaesthetized rats [2]; po 30 mg/kg, reperfusion 1 min
  Antiarrhythmic effect: 0.6 ± 0.9
Anaesthetized rats [2]; po 30 mg/kg, reperfusion 1.5 min
  Antiarrhythmic effect: 0.5 ± 0.6
Anaesthetized rats [2]; po 30 mg/kg, reperfusion 3 min
  Antiarrhythmic effect: 0.2 ± 0.2
Anaesthetized rats [2]; po 30 mg/kg, reperfusion 4 min
  Antiarrhythmic effect: 0.2 ± 0.2
Anaesthetized rats [2]; po 30 mg/kg, reperfusion 5 min
  Antiarrhythmic effect: 0.2 ± 0.2
Anaesthetized rats [2]; po 30 mg/kg, reperfusion 6 min
  Antiarrhythmic effect: 0.2 ± 0.3
Anaesthetized rats [2]; po 30 mg/kg, reperfusion 7 min
  Antiarrhythmic effect: 0.2 ± 0.3
Anaesthetized rats [2]; po 30 mg/kg, reperfusion 15 min
  Antiarrhythmic effect: 0.3 ± 0.3
Anaesthetized rats [2]; po 30 mg/kg, reperfusion 25 min
  Antiarrhythmic effect: 0.2 ± 0.3
[1]; clinical use
  oral administration: can not be administered orally
  prevention of ventricular fibrillation: can not effectively prevent ventricular fibrillation
  suppression of arrhythmia: can effectively suppress arrhythmia
Anaesthetized rats [3]; iv
  ED50: 2.23 mg/kg

## COc1cc2c(cc1OC)-c1cc3ccc(OC)c(OC)c3c[n+]1CC2 [palmatine]
[1]
  cardiovascular activities: highly potent cardiovascular activities

## O=C(NCC1CCCCN1)c1cc(OCC(F)(F)F)ccc1OCC(F)(F)F (stereo not shown) [Flecainide]
[1]
  side effects: marked side effects of pulmonary fibrosis and thyroid function change
[1]; clinical use
  effect upon arrhythmia: good effect upon arrhythmia

## Cc1cccc(C)c1OCC(C)N (stereo not shown) [mexiletine, reference compound]
[4]
  ke: 0.075
